Literature values in PMC8557155 (Annals of Nuclear Medicine, 2021).

Conditions: rat model, lysine-protected rats; cited from earlier work

NCCCC[C@H](N)C(=O)O [lysine]
Reduction of 177Lu quantified in the kidney: approximately 45%
